Data set [1] has as its target H3R in brain (Mus musculus, UniProt P58406). To be noted: mice, oral, immethridine base and salts at 0.3 mg/kg, imetit: maximal reduction.
The next data set addresses human HMT (Homo sapiens, UniProt P50135). Description: tele-methylation by HMT, cytosol of fresh human hepatocytes, Lineweaver-Burk analysis. To be noted: pH 7.4, 20 μM (S)-adenosyl methionine.
Data set [2] is described as follows: sleep EEG recording in rats (24-hr recordings). The note with it: for tolerance to sleep-promoting / hypnotic effect: repeated o.d. administration over several days. It is filed as in vivo. The text has this:
While the sleep-promoting activity of several other H3R agonists has been previously described (Lin et al., Brain Res., 1990, 523, 325-330; Monti et al., Neuropsychopharmacology, 1996, 15, 31-35), much higher dosages—by two to three orders of magnitude—were required to obtain this effect.
This is in contrast with the long-lasting disorders of circadian rhythms, namely the relative insomnia, which occur at the interruption of a repeated treatment with benzodiazepines or imidazopyridines such as Zolpidem.

A further data set has as its target T1, recombinant hH3R (Homo sapiens, UniProt Q9Y5N1).
T1 construct: expressed in transfected cells; host or cells: HEK 293 cells
The data set is described as follows: [35S]GTPγS binding activation on recombinant hH3R expressed in HEK 293 cells. It is filed as biochemical.

The next data set has as its target human H3R (Homo sapiens, UniProt Q9Y5N1). The data set is described as follows: β arrestin translocation. It is filed as cell-based.
Data set [3] can be described thus: AUCs of unchanged drug and tele methylated derivative in mouse brain and blood. Format: in vivo. To be noted: 1 mg/kg, p.o.
A short description of data set [4]: withdrawal symptoms after interruption of repeated Zolpidem treatment in rats. Format: in vivo. To be noted: 18 days 20 mg/kg o.d. oral Zolpidem followed by 0.3 mg/kg, p.o. How it is done: (§1) Accordingly, rats treated orally for 18 days by 20 mg/kg o.d.
Data set [5] is described as follows: general tolerance in rodents. It is filed as in vivo. The note with it: doses as high as 100 mg/kg. How it is done: as §1
In data set [6] the target is recombinant human cytochrome P450 3A4 (Homo sapiens, UniProt P08684). Description: inhibition of recombinant human cytochrome P450 3A4. To be noted: read-out: IC50 at 3A4 isoform. It is filed as in vitro ADME. The text has this: (§2) These values are over 3 orders of magnitude higher than the expected plasma or tissue concentrations at therapeutic dosage.
recombinant human cytochrome P450 3A4, sequence (P08684 whole entry, canonical isoform): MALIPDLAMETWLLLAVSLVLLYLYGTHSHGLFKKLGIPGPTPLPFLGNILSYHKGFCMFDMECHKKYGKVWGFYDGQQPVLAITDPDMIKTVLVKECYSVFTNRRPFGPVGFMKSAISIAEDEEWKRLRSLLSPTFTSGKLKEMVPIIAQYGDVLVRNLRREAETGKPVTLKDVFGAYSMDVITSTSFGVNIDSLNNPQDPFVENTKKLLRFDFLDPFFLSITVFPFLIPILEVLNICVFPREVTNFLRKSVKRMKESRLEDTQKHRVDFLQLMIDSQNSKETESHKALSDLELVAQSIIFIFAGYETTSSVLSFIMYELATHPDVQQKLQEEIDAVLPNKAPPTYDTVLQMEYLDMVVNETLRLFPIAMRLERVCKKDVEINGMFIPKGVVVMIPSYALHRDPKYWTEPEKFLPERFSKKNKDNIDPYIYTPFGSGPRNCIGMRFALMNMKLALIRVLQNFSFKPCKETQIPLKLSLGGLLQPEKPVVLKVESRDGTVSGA
Data set [7] deals with recombinant human cytochrome P450 2D6 (Homo sapiens, UniProt P10635). Description: inhibition of recombinant human cytochrome P450 2D6. It is filed as in vitro ADME. To be noted: read-out: IC50 at 2D6 isoform.
recombinant human cytochrome P450 2D6, sequence (P10635 whole entry, canonical isoform): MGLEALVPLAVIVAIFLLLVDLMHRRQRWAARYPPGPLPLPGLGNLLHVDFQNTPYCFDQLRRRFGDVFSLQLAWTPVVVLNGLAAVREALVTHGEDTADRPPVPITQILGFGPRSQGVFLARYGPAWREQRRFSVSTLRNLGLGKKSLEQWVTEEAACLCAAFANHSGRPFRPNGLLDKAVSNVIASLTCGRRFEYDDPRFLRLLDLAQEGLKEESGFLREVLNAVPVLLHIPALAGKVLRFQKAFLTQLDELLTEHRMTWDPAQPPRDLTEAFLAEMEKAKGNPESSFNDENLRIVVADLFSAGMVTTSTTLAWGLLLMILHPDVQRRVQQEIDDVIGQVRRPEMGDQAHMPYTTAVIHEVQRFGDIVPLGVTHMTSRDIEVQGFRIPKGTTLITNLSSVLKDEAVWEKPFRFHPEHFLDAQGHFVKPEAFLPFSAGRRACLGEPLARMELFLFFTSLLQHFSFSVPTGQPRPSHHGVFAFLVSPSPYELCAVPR
Text: as §2

Data set [8] deals with recombinant human cytochrome P450 2C9 (Homo sapiens, UniProt P11712). The data set is described as follows: inhibition of recombinant human cytochrome P450 2C9. Format: in vitro ADME. The note with it: read-out: IC50 at 2C9 isoform.
recombinant human cytochrome P450 2C9, sequence (P11712 whole entry, canonical isoform): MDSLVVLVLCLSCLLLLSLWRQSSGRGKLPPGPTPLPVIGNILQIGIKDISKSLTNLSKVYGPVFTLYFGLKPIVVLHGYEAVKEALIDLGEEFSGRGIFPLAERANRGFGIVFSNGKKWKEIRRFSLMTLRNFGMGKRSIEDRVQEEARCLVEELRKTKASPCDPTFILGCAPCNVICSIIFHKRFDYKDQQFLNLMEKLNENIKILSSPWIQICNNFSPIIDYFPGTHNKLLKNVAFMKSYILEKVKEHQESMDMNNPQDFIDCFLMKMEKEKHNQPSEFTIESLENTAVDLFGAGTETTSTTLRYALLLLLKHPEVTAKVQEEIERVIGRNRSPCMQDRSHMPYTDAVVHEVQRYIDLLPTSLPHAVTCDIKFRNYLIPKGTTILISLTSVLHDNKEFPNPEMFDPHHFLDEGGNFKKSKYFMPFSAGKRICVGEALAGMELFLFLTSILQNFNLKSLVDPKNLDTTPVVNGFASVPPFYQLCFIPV
Text: as §2

The subject of data set [9] is human CYP 450 isoforms (3A4, 2C9, 2E1, 2B6) and UGTs. Description: induction of CYP 450 isoforms and UGTs in human hepatocytes. Format: in vitro ADME. The note with it: concentrations over 3 orders of magnitude higher than expected therapeutic concentrations.
Another data set addresses T2, H3R (Rattus norvegicus, UniProt Q9QYN8).
T2 construct: host or cells: living rats (brain)
The note with it: rats, intraperitoneal, doses as high as 10 mg/kg necessary (Celanire et al.); cited from earlier work.

A short description of data set [10]: AUCs of unchanged drug and metabolite in rat brain and blood. To be noted: Sprague-Dawley, po, 1 mg/kg.
Data set [11] in a line: stability on heating at 80° C. during one week, HPLC analysis.
Data set [12] deals with T3, hERG potassium channel (Homo sapiens, UniProt Q12809). Description: [3H]dofetidide binding assay, HEK-293 cells stably expressing hERG. To be noted: concentrations up to 10 μM.
T3 sequence (Q12809 whole entry): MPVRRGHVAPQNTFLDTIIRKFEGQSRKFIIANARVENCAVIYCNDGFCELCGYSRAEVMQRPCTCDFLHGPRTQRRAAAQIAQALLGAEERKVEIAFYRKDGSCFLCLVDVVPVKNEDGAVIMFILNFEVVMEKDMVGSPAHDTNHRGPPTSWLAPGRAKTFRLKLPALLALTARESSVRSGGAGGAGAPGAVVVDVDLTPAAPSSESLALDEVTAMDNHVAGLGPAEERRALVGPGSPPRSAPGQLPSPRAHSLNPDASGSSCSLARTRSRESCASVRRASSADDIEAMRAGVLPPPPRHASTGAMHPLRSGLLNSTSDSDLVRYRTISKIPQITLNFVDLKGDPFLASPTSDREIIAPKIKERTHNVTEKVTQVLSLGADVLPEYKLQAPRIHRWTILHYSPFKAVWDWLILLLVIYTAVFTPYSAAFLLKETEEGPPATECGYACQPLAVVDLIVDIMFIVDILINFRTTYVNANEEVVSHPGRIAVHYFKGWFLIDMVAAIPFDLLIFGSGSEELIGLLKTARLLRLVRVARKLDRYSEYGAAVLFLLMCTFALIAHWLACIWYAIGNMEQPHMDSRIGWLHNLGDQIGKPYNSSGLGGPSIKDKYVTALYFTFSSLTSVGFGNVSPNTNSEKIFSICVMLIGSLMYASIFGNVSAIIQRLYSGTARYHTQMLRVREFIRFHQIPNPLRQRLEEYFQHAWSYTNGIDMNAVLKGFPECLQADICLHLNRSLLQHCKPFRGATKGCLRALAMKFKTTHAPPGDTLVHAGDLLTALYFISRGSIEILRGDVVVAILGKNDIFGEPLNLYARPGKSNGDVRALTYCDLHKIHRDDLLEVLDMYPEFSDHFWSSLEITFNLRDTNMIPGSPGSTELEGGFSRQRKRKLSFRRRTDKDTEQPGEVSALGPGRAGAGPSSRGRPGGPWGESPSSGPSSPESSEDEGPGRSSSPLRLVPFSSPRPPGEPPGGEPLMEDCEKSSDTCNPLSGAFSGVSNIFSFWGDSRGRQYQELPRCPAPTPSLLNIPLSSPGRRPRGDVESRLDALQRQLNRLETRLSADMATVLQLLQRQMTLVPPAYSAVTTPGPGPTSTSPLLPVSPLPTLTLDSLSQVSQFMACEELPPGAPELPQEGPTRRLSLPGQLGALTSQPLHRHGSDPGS
In data set [13] the target is T3, hERG potassium channel. Description: potassium hERG current, functional patch clamp assay in HEK-293 cells. To be noted: concentrations up to 10 μM.
In data set [14] the test system is H3R in brain. The data set is described as follows: reduction of brain tele methylhistamine levels after oral dosing (ED50).
A short description of data set [15]: hygroscopy: water uptake in a water-saturated atmosphere at room temperature. Format: physicochemical. To be noted: a few days in water-saturated atmosphere at room temperature, listed as immethridine dioxalate.

The values that follow come from patent US20120129892A1, “NOVEL PHARMACEUTICALLY ACCEPTABLE SALTS OF 4-(1H-IMIDAZOL-4-[…])PYRIDINE AND THEIR THERAPEUTICAL USES” (BIOPROJET, priority 2009, published 2012).

Where a name gives a salt, the structure may show the parent alone. Read-outs that look alike come from different tables or passages of the source. Some results are limits rather than exact numbers.

H3R in brain (Mus musculus, UniProt P58406), sequence (P58406 whole entry): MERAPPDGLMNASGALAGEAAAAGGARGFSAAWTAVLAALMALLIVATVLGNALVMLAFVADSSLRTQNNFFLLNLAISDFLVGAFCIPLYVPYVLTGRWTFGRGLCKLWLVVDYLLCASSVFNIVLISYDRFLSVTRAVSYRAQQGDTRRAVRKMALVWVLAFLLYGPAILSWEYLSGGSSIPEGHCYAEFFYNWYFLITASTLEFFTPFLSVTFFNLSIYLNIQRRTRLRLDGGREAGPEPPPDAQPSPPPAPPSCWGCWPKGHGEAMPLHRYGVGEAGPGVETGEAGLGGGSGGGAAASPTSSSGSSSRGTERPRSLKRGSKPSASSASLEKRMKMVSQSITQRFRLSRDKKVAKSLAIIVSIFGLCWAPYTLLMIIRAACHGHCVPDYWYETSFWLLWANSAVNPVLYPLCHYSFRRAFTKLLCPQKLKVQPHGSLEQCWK
human HMT, sequence (P50135 whole entry): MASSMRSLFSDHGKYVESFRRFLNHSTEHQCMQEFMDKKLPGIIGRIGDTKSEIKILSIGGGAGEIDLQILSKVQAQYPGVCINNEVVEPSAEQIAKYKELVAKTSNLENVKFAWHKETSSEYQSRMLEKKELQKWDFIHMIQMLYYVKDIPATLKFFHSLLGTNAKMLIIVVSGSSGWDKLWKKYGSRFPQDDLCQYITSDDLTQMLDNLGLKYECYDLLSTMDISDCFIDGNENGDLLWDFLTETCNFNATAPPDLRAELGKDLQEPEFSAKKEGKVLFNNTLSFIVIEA
T1 sequence (Q9Y5N1 whole entry): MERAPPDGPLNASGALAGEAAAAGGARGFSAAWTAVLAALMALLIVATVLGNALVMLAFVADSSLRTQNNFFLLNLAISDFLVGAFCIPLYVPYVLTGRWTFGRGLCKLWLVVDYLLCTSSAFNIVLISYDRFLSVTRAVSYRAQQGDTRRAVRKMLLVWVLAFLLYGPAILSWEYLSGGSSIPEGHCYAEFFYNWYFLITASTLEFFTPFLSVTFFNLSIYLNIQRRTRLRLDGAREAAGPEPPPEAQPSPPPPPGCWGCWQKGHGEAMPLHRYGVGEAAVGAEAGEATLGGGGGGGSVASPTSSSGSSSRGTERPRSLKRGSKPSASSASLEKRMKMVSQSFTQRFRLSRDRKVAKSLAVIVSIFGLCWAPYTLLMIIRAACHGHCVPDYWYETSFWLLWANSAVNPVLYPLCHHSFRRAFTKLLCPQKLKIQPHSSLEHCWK
human H3R, sequence (Q9Y5N1 whole entry): as above
T2 sequence (Q9QYN8 whole entry): as the sequence (P58406 whole entry) above, with A15T, T286A, G290A, H387R, V389I counted along it

For the compound `CS(=O)(=O)O.CS(=O)(=O)O.c1cc(Cc2c[nH]cn2)ccn1` [Immethridine methane sulfonate], the “t-methylhistamine brain level variation vs. control, mean (%)” value on H3R in brain [1] was −40.0%.
On to `c1cc(Cc2c[nH]cn2)ccn1` [BP1.5375 (ditoluenesulfonate salt)], for which the “t-methylhistamine brain level variation vs. control, mean (%)” value at H3R in brain [1] (listed as Immethridine di p-toluene sulfonate, 0.3 mg/kg) is on record as −41.6%. Besides, the Vm at human HMT was determined as 0.004 µM/min.
As to `Cc1ccc(-c2nc3ccc(C)cn3c2CC(=O)N(C)C)cc1` [Zolpidem, reference compound], the “withdrawal symptoms upon interruption of repeated treatment” value in [2] (after interruption of 15-day treatment with 20 mg/kg, p.o.) is listed as “increases in sleep onset latency, decrease in deep sleep”. Also, the “tolerance to sleep-promoting / hypnotic effect” value in [2] was “rapid development of tolerance”.
Regarding `c1cc(Cc2c[nH]cn2)ccn1` [BP1.5375 (dibromhydrate salt)], the Vm at human HMT was 0.004 µM/min.
Regarding `c1cc(Cc2cnc[nH]2)ccn1` [BP1.5375, 4-(1H-imidazol-4-yl-methyl)-pyridine], the EC50 at recombinant hH3R was about 0.001 µM; at human H3R it was about 0.017 µM. Moreover, on recombinant hH3R ([35S]GTPγS binding, hH3R), the “intrinsic activity compared with histamine” value turned out to be 0.75. Also, at human H3R (β arrestin translocation), the “intrinsic activity compared to histamine” value amounted to 0.5. For the same compound, in data set [3], the “ratio of brain/blood AUCs” value is “close to unit”. Also, the “rebound / sleep pattern upon interruption of repeated treatment” value in [2] (after interruption of 6-day treatment with 0.3 mg/kg, p.o.) is recorded as “does not give rise to a rebound phenomenon”. Further, the “tolerance to sleep-promoting / hypnotic effect” value in data set [2] was “does not diminish”. For the same compound, the “duration of deep SWS (slow wave sleep) period” value in data set [2] (same very low dosages, administered 30 min before start of light-on period) is listed as “enhanced significantly”. The “occurrence of withdrawal symptoms after Zolpidem interruption” value in data set [4] is listed as “prevents the occurrence of withdrawal symptoms”. In data set [5], the apparent toxicity sign entry was “does not induce any apparent toxicity sign”. The concentration for half-maximal inhibition (IC50) was 29.3 µM in data set [6], at least 100 µM in data set [7] and 3.1 µM in data set [8]. Also, the “induction of CYP 450 isoforms (3A4, 2C9, 2E1, 2B6) and UGTs” value in data set [9] was “not induced”. Besides, at H3R in brain [1] (0.3 mg/kg), the “t-methylhistamine brain level variation vs. control, mean (%)” value is given as −42.1%. In addition, the “decrease of histamine in brain” value on H3R was “modestly decrease histamine in brain”. For the same compound, the Kp in data set [10] was 2.6. In addition, the stability when heated result in [11] (listed as immethridine) is given as “darkens”. The “inhibition of [3H]dofetidide binding” value at hERG potassium channel [12] is given as “not to inhibit”. In addition, the “inhibition of potassium hERG current” value on hERG potassium channel [13] is recorded as “not to inhibit”. Moreover, in the data set with H3R in brain [14] (given orally to rats or mice), the “ED50, reduction of levels of tele methylhistamine in brain” value is recorded as about 30 micrograms/kg. Besides, the “tele methylhistamine response upon repeated administration” value with H3R in brain [14] (repeated administration over 7 days) was “maintained”.
With `c1cc(Cc2c[nH]cn2)ccn1` [BP1.5375 (alpha keto-glutarate salt)], the “t-methylhistamine brain level variation vs. control, mean (%)” value at H3R in brain [1] (listed as Immethridine alpha-ketoglutarate, 0.3 mg/kg) is given as −46.1%.
On to `c1cc(Cc2cnc[nH]2)ccn1` [Immethridine dihydrochloride], for which the “t-methylhistamine brain level variation vs. control, mean (%)” value at H3R in brain [1] was −37.0%.
In the case of `c1cc(Cc2cnc[nH]2)ccn1` [BP1.5375 (dioxalate salt), 4-(1H-imidazol-4-ylmethyl)-pyridine dioxalate], the “water uptake, % of weight” value in data set [15] is listed as 13-15%. Further, in data set [11] (listed as immethridine dioxalate, dioxalate), the stability when heated result is recorded as “no apparent degradation”.
